Literature values in patent US20020137787A1, “Prevention or treatment of complications related to non-insulin dependent diabetes mellitus or type 2 diabetes mellitus” (priority 2001, published 2002).
Where two headings read alike, the source gives them in different places.

Experiments:
[1] = patients taking Clozapine

Structure (SMILES) | effect on body weight (overweight depressed patients) | effects on blood glucose and lipid profiles (reported) | effect on body weight [1]
CNCCC(Oc1ccc(C(F)(F)F)cc1)c1ccccc1 (stereo not drawn) [Fluoxetine] | weight loss | positive effects | 
CN1CCN(C2=Nc3cc(Cl)ccc3Nc3ccccc32)CC1 [Clozapine] |  |  | increased weight
